Experimental findings from PubChem BioAssay (NCI) are described below.

Usually TGI stands for the concentration at which net growth stops. For orientation: GI50 means the concentration at which growth is held to half of that of the control.

“And” between values parts separate entries of the source, which are not always exact repeats. Equal entries are not always repeated.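 Test compounds were applied to cells in 96-well plates for 48 hours at 5 doses. GI50 marks 50% less growth. TGI: total growth inhibition.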

Test systems include SNB-75 CNS; SK-MEL-28 melanoma; SF-539 CNS; MOLT-4 leukemia; SK-MEL-2 melanoma; SF-295 CNS; A549 NSCLC; UACC-62 melanoma; COLO 205 colon; U251 CNS.
Common to all, as to assay: DTP human tumour cell line panel, 48 h

Consider `COc1cc(CCc2ccc(N)cc2)cc(OC)c1OC`, for which the TGI in the test on SNB-75 CNS was over 100 µM; in the test with SK-MEL-28 melanoma, 92.8 µM; in the test with SF-539 CNS, over 100 µM; with MOLT-4 leukemia, over 100 µM; with SK-MEL-2 melanoma, 82.6 µM; in the test on SF-295 CNS it was over 61.6 µM. The TGI in the test with A549 NSCLC was over 100 µM; in the test with UACC-62 melanoma it was over 89.8 µM; in the test on COLO 205 colon it was 53.1 µM; with U251 CNS it was over 100 µM.
For `CN(C)CCNC(=O)c1cccc2c1Oc1c(cccc1[N+](=O)[O-])O2`, the TGI with SNB-75 CNS was 3.96 µM; in the test with SK-MEL-28 melanoma it was 7.87 µM; in the test on SF-539 CNS, 4.85 µM; with MOLT-4 leukemia it was 2.27 µM; in the test with SK-MEL-2 melanoma, 3.06 µM; in the test on SF-295 CNS, 5.09 µM. For the same compound, the TGI in the test on A549 NSCLC was 3.42 µM; in the test with UACC-62 melanoma, 1.77 µM; in the test with COLO 205 colon, 4.28 µM; in the test with U251 CNS, 10.4 µM.
Turning to `Nc1ncnc2c1ncn2C1OC(CO)C(O)C1N` (stereo not given), the TGI in the test with SNB-75 CNS, with SK-MEL-28 melanoma, with SF-539 CNS, with MOLT-4 leukemia, with SK-MEL-2 melanoma and with SF-295 CNS was over 100 µM in each case. The TGI in the test on A549 NSCLC, in the test with UACC-62 melanoma, in the test on COLO 205 colon and in the test on U251 CNS was over 100 µM in each case.
Take `CCCCCCCCCCCCCC[C@@H](O)[C@H]1CC[C@H]([C@H]2CC[C@H]([C@H](O)CCCCCC[C@@H](O)CC3=C[C@H](C)OC3=O)O2)O1`: the GI50 in the test with SNB-75 CNS was 1.7 µM; in the test on SK-MEL-28 melanoma it was 2.9 µM; with SF-539 CNS, 2.25 µM; with MOLT-4 leukemia it was 2.01 µM; with SK-MEL-2 melanoma, 1.52 µM; in the test on SF-295 CNS it was 1.18 µM. Moreover, the GI50 in the test on A549 NSCLC is 1.59 µM; in the test on UACC-62 melanoma, over 25 µM; with COLO 205 colon, 1.52 µM; in the test on U251 CNS, 2.06 µM. Moreover, the TGI in the test on SNB-75 CNS is 4.95 µM and > 25 µM; in the test with SK-MEL-28 melanoma, over 25 µM; with SF-539 CNS, 6.85 µM and > 25 µM; in the test on MOLT-4 leukemia it was 8.81 µM and > 25 µM; in the test with SK-MEL-2 melanoma it was 3.86 µM and > 25 µM; in the test with SF-295 CNS it was over 25 µM. Moreover, the TGI was over 25 µM in the test on A549 NSCLC; 4.5 µM and > 25 µM in the test on UACC-62 melanoma; 3.06 µM and > 25 µM in the test with COLO 205 colon; over 25 µM with U251 CNS.
On to `CC(=O)OC1COC(n2c(=S)n(-c3ccccc3)c(=O)c3ccccc32)C(OC(C)=O)C1OC(C)=O` (stereo not given), for which the TGI with SNB-75 CNS is over 100 µM; in the test with SK-MEL-28 melanoma, over 100 µM; with SF-539 CNS, over 100 µM; with MOLT-4 leukemia, over 100 µM; in the test with SK-MEL-2 melanoma, over 100 µM; in the test on SF-295 CNS, 85.7 µM. Besides, the TGI with A549 NSCLC, in the test on UACC-62 melanoma, with COLO 205 colon and in the test on U251 CNS was over 100 µM in each case.
`CCOC(=O)COc1ccc2c(C)cc(=O)oc2c1`: the TGI in the test with SNB-75 CNS, in the test on SK-MEL-28 melanoma, with SF-539 CNS, in the test on MOLT-4 leukemia, in the test with SK-MEL-2 melanoma and in the test with SF-295 CNS was over 100 µM throughout. For the same compound, the TGI in the test with A549 NSCLC, in the test on UACC-62 melanoma, with COLO 205 colon and with U251 CNS was over 100 µM throughout.
For the compound `COc1cc(-c2nn(-c3cccc(NC(=O)c4ccc(Cl)c(C(F)(F)F)c4)c3)cc2-c2ccncc2)ccc1Cl`, the GI50 is 1.07 µM in the test with SNB-75 CNS; 3.09 µM in the test with SK-MEL-28 melanoma; 2.63 µM in the test with SF-539 CNS; 5.24 µM in the test on MOLT-4 leukemia; 1.42 µM with SK-MEL-2 melanoma; 1.08 µM in the test with SF-295 CNS. Further, the GI50 in the test on A549 NSCLC was 2.41 µM; in the test with UACC-62 melanoma, 1.6 µM; in the test with COLO 205 colon it was 3.5 µM; in the test with U251 CNS it was 2.39 µM. Moreover, the TGI was 13.2 µM in the test on SNB-75 CNS; over 32.5 µM with SK-MEL-28 melanoma; 15 µM in the test with SF-539 CNS; over 32.5 µM in the test with MOLT-4 leukemia; 10.1 µM in the test with SK-MEL-2 melanoma; 8.19 µM with SF-295 CNS. Further, the TGI was over 32.5 µM in the test with A549 NSCLC, over 32.5 µM in the test with UACC-62 melanoma, 17.6 µM in the test with COLO 205 colon and over 32.5 µM with U251 CNS.
For `COc1nnc2ccc(N3CCC(c4ccc(OCCN5CCN(C)C(=O)[C@H]5C)cc4)CC3)nn12`, the GI50 is 0.0144 µM with SNB-75 CNS; 0.522 µM with SK-MEL-28 melanoma; 0.116 µM with SF-539 CNS; 0.328 µM in the test on MOLT-4 leukemia; 0.678 µM in the test on SK-MEL-2 melanoma; 0.206 µM in the test on SF-295 CNS. The GI50 in the test with A549 NSCLC is 0.436 µM; with UACC-62 melanoma it was under 0.0153 µM; in the test on COLO 205 colon, 0.0553 µM; with U251 CNS, 0.961 µM. The TGI in the test on SNB-75 CNS was 73.7 µM; in the test on SK-MEL-28 melanoma, over 100 µM; in the test on SF-539 CNS, over 100 µM; in the test on MOLT-4 leukemia it was over 100 µM; in the test on SK-MEL-2 melanoma, over 100 µM; in the test with SF-295 CNS, over 100 µM. Besides, the TGI in the test on A549 NSCLC is over 100 µM; in the test on UACC-62 melanoma it was over 56.9 µM; in the test on COLO 205 colon, over 100 µM; with U251 CNS it was over 100 µM.
`NC(=S)c1c(N)n(C2OC(CO)C(O)C2O)c2ncnc(N)c12` (stereo not given): the GI50 with SNB-75 CNS was 0.885 µM; with SK-MEL-28 melanoma, 0.295 µM; in the test with SF-539 CNS, 0.241 µM; in the test with MOLT-4 leukemia it was 0.245 µM; in the test with SK-MEL-2 melanoma, 0.297 µM; in the test on SF-295 CNS it was 0.659 µM. For the same compound, the GI50 with A549 NSCLC was 0.301 µM; with UACC-62 melanoma it was 0.263 µM; in the test on COLO 205 colon it was 0.186 µM; in the test on U251 CNS, 0.496 µM. In addition, the TGI was 4.17 µM in the test on SNB-75 CNS; 1.81 µM in the test on SK-MEL-28 melanoma; 1.06 µM with SF-539 CNS; 0.927 µM with MOLT-4 leukemia; 1.07 µM with SK-MEL-2 melanoma; over 27.1 µM in the test with SF-295 CNS. Moreover, the TGI in the test on A549 NSCLC is over 100 µM; with UACC-62 melanoma it was 1.37 µM; with COLO 205 colon, 0.567 µM; with U251 CNS it was over 100 µM.
